Measured values as given in ChEMBL document CHEMBL3414551, “Selective inhibitors of protein methyltransferases” (J Med Chem, 2015).

What was measured:
[1] = biological target: T1, Protein arginine N-methyltransferase 1 (Homo sapiens, UniProt Q99873); test: Inhibition of recombinant GST-tagged PRMT1 (unknown origin) using GST-P3 as substrate after 90 mins by scintillation counting analysis in presence of [3H]AdoMet
[2] = biological target: T2, Histone-lysine N-methyltransferase EHMT1 (Homo sapiens, UniProt Q9H9B1); test: Inhibition of recombinant human GLP (951 to 1235) using Histone H3 peptide (1 to 15) as substrate preincubated on ice for 10 mins followed by 5 mins incubation at 30 degC measured 5 mins post substrate addition by mass spectrophotometric analysis
T2 sequence (Q9H9B1 whole entry): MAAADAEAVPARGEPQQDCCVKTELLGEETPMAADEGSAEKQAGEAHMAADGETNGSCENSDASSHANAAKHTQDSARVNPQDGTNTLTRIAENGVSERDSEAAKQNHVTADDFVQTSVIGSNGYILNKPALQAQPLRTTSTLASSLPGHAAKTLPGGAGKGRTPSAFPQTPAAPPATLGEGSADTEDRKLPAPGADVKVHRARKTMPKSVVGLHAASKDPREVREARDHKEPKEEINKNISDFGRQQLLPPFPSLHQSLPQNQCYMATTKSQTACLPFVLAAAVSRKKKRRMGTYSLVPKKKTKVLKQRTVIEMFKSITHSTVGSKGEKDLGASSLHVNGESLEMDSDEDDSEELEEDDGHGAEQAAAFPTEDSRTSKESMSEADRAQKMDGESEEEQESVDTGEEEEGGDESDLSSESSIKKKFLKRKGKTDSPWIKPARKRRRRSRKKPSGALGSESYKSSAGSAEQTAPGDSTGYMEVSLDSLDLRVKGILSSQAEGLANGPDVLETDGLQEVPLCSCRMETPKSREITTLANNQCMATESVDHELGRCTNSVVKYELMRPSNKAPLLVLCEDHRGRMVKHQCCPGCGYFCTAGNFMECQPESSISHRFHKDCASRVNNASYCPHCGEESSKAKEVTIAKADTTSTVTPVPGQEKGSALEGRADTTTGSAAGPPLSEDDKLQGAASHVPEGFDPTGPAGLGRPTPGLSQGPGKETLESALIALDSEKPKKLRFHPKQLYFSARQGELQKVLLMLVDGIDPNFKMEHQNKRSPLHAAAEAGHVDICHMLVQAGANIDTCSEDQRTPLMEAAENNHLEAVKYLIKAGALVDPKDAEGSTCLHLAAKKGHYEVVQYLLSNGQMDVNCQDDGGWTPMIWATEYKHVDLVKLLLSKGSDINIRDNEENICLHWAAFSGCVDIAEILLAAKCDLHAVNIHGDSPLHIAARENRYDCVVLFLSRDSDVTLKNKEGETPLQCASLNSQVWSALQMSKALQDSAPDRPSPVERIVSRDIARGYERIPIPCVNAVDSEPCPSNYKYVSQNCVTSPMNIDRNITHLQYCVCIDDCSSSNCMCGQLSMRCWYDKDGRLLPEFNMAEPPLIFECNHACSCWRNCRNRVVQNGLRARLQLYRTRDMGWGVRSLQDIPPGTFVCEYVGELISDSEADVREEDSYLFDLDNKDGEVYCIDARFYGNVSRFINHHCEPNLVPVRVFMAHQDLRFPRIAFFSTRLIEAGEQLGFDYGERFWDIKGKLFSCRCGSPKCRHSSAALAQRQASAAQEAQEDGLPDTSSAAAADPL

[3] = biological target: T3, Histone-lysine N-methyltransferase EHMT2 (Homo sapiens, UniProt Q96KQ7); test: Inhibition of G9a (unknown origin) using SAM/biotinylated H3 as substrate preincubated for 1 hr followed by substrate addition measured after 2 hrs by ELISA
T3 sequence (Q96KQ7 whole entry): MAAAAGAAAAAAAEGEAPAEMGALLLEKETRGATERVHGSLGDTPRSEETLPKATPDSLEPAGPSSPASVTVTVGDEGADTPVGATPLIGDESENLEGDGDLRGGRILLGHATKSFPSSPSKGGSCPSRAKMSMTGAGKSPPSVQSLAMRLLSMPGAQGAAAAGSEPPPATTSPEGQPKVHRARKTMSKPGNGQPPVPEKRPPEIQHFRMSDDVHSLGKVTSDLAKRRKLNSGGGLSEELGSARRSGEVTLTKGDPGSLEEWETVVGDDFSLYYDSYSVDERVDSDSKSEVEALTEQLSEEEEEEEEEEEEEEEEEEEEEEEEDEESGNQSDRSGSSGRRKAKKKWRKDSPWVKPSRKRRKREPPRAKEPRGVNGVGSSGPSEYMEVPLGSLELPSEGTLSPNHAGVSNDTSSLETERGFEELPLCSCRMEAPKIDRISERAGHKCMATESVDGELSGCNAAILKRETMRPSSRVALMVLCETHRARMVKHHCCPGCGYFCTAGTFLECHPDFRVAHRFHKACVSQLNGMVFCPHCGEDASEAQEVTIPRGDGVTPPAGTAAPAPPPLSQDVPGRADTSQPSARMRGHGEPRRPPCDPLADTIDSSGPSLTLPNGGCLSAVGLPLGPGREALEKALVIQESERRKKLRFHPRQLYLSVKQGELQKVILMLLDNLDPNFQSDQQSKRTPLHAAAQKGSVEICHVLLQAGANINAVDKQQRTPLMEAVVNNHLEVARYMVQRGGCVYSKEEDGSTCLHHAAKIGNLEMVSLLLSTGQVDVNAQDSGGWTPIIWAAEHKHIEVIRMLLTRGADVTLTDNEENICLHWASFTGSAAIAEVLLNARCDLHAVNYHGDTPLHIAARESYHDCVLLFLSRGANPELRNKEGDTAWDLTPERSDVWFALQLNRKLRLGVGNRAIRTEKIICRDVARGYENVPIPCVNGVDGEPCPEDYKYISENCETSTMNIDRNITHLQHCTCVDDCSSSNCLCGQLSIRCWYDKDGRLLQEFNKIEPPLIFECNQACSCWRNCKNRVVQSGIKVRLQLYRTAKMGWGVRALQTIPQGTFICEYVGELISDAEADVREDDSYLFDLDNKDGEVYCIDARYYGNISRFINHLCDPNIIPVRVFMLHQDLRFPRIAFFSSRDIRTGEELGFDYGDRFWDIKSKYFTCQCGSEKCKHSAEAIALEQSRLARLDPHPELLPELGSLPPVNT

[4] = organism: Homo sapiens; test: Selectivity ratio of IC50 for human SMYD2 to IC50 for N-terminal His6-tagged human SETD8 (191 to 352)
[5] = organism: Homo sapiens; test: Selectivity ratio of IC50 for N-terminal His6-tagged human PRMT1 (10 to 352) to IC50 for N-terminal His6-tagged human SETD8 (191 to 352)
[6] = organism: Homo sapiens; test: Selectivity ratio of IC50 for N-terminal His6-tagged human PRMT3 (211 to 531) to IC50 for N-terminal His6-tagged human SETD8 (191 to 352)
[7] = biological target: T4, Histone-lysine N-methyltransferase EZH2 (Homo sapiens, UniProt Q15910); test: Inhibition of human EZH2 using SAM and histone H3 (16 to 30) as substrate preincubated for 30 mins followed by substrate addition measured after 90 mins by flash plate assay
T4 sequence (Q15910 whole entry): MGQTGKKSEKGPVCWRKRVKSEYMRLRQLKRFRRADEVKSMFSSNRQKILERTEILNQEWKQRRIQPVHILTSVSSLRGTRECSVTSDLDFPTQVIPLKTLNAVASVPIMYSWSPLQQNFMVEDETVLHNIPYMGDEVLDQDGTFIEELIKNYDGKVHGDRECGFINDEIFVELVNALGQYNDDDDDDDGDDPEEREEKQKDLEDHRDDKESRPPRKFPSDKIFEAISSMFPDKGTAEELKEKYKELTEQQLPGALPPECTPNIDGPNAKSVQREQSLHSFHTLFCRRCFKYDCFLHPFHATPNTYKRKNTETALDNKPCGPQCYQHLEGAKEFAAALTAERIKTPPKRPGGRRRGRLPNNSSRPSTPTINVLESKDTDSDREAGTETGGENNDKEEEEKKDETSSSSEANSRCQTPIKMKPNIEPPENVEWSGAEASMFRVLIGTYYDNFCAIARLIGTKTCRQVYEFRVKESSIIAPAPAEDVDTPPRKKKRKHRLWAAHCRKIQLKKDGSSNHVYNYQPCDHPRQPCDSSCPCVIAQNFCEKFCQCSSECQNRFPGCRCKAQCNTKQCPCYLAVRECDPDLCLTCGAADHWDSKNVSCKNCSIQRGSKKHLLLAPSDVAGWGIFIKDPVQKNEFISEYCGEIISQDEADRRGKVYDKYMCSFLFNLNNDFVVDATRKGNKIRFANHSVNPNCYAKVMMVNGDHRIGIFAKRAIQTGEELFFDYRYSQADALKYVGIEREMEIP

[8] = biological target: T4, Histone-lysine N-methyltransferase EZH2; test: Inhibition of EZH2 (unknown origin) using biotinylated-histone H3 (1 to 24) as substrate after 1 hr by scintillation proximity assay in presence of [3H]-SAM
[9] = biological target: T5, N-lysine methyltransferase KMT5A (Homo sapiens, UniProt Q9NQR1); test: Inhibition of N-terminal His6-tagged human SETD8 (191 to 352) assessed as incorporation of [3H]-methyl group from [3H-Me]-SAM to biotinylated H4K20 peptide substrate preincubated for 10 mins followed by substrate addition by liquid scintillation counting analysis
T5 sequence (Q9NQR1 whole entry): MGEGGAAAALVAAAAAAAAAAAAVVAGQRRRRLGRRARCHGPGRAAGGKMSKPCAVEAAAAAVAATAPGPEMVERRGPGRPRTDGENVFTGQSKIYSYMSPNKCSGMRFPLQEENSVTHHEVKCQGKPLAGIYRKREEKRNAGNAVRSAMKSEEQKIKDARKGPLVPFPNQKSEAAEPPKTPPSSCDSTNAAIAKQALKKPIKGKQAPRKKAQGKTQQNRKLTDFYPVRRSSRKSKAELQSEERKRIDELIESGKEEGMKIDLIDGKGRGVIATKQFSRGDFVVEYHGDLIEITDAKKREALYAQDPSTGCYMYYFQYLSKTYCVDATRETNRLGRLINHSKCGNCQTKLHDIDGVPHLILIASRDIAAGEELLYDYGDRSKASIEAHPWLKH

[10] = tested on: REH; test: cells; details: Homo sapiens
[11] = tested on: Kasumi 1; test: cells; details: Homo sapiens
[12] = tested on: 697; test: cells; details: Homo sapiens
[13] = cells; details: Homo sapiens, HL-60
[14] = tested on: Jurkat; test: cells; details: Homo sapiens
[15] = cells; details: Homo sapiens, U-937
[16] = biological target: N-lysine methyltransferase SMYD2 (Homo sapiens, UniProt Q9NRG4); test: Binding affinity to recombinant human full-length SMYD2 (1 to 433) by ITC analysis
N-lysine methyltransferase SMYD2, sequence (Q9NRG4 whole entry): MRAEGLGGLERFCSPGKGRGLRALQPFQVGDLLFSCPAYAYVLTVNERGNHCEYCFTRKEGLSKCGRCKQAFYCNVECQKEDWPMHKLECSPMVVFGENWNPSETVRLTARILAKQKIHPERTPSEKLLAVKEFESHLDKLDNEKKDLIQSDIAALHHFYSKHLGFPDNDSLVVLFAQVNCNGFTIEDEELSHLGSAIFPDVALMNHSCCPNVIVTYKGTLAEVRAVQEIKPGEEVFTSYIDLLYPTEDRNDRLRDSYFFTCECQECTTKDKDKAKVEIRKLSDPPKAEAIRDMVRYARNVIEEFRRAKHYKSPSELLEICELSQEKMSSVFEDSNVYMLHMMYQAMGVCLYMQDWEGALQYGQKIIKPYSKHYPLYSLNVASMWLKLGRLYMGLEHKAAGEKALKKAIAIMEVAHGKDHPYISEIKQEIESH

[17] = biological target: T1, Protein arginine N-methyltransferase 1; test: Inhibition of recombinant human GST-tagged PRMT1 using GST-Npl3 as substrate
[18] = biological target: T6, Histone-arginine methyltransferase CARM1 (Homo sapiens, UniProt Q86X55); test: Inhibition of recombinant human GST-tagged CARM1
T6 sequence (Q86X55 whole entry): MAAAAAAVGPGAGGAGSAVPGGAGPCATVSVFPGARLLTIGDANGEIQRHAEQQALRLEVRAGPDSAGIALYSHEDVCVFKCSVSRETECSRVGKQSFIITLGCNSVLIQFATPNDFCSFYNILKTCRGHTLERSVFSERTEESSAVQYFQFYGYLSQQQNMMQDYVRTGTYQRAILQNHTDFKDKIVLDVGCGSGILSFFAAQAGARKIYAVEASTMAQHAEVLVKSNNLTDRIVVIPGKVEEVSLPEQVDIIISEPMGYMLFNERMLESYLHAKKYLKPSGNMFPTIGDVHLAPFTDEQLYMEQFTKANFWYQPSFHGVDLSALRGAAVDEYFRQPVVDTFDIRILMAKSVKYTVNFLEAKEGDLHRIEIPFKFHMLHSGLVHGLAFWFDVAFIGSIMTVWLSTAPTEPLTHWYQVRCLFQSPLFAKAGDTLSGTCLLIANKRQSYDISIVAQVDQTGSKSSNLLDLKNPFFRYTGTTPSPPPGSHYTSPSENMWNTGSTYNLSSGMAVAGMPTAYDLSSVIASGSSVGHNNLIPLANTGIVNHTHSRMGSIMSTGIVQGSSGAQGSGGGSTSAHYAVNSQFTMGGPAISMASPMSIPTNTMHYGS

[19] = biological target: T7, Histone-arginine methyltransferase CARM1 (Homo sapiens) (UniProt Q86X55); test: Inhibition of CARM1 in human HeLa cells assessed as reduction of H3R17 methylation at 5 uM after 24 hrs by Western blot analysis relative to control; type: cell-based
T7 sequence (whole entry): T6 sequence (Q86X55 whole entry)

[20] = tested on: Mus musculus; test: Cmax in Swiss albino mouse at 50 mg/kg, po; type: ADME, organism-based; design: dose 50 mg/kg, route oral; details: in vivo
[21] = biological target: T4, Histone-lysine N-methyltransferase EZH2; test: Inhibition of N-terminal FLAG tagged full-length human EZH2 expressed in baculovirus infected Sf9 cells using H3K27 as substrate after 120 mins by mass spectrophotometric analysis
[22] = biological target: Histone-lysine N-methyltransferase EZH2 (Homo sapiens, UniProt Q15910, Y641F); test: Inhibition of N-terminal FLAG tagged human EZH2 Y641F mutant expressed in baculovirus infected Sf9 cells using H3K27 as substrate after 120 mins by mass spectrophotometric analysis
Histone-lysine N-methyltransferase EZH2 (Homo sapiens, UniProt Q15910, Y641F), sequence (Q15910 whole entry Y641F): as the sequence (Q15910 whole entry) above, with Y641F counted along it

[23] = biological target: T4, Histone-lysine N-methyltransferase EZH2; test: Inhibition of N-terminal FLAG tagged full-length human EZH2 expressed in baculovirus infected Sf9 cells using H3K27 as substrate in presence of SAM
[24] = biological target: Histone-lysine N-methyltransferase, H3 lysine-79 specific (Homo sapiens, UniProt Q8TEK3); test: Inhibition of DOT1L in human MCF10A cells assessed as reduction of H3K79 level; type: cell-based, MCF-10A
Histone-lysine N-methyltransferase, H3 lysine-79 specific, sequence (Q8TEK3 whole entry): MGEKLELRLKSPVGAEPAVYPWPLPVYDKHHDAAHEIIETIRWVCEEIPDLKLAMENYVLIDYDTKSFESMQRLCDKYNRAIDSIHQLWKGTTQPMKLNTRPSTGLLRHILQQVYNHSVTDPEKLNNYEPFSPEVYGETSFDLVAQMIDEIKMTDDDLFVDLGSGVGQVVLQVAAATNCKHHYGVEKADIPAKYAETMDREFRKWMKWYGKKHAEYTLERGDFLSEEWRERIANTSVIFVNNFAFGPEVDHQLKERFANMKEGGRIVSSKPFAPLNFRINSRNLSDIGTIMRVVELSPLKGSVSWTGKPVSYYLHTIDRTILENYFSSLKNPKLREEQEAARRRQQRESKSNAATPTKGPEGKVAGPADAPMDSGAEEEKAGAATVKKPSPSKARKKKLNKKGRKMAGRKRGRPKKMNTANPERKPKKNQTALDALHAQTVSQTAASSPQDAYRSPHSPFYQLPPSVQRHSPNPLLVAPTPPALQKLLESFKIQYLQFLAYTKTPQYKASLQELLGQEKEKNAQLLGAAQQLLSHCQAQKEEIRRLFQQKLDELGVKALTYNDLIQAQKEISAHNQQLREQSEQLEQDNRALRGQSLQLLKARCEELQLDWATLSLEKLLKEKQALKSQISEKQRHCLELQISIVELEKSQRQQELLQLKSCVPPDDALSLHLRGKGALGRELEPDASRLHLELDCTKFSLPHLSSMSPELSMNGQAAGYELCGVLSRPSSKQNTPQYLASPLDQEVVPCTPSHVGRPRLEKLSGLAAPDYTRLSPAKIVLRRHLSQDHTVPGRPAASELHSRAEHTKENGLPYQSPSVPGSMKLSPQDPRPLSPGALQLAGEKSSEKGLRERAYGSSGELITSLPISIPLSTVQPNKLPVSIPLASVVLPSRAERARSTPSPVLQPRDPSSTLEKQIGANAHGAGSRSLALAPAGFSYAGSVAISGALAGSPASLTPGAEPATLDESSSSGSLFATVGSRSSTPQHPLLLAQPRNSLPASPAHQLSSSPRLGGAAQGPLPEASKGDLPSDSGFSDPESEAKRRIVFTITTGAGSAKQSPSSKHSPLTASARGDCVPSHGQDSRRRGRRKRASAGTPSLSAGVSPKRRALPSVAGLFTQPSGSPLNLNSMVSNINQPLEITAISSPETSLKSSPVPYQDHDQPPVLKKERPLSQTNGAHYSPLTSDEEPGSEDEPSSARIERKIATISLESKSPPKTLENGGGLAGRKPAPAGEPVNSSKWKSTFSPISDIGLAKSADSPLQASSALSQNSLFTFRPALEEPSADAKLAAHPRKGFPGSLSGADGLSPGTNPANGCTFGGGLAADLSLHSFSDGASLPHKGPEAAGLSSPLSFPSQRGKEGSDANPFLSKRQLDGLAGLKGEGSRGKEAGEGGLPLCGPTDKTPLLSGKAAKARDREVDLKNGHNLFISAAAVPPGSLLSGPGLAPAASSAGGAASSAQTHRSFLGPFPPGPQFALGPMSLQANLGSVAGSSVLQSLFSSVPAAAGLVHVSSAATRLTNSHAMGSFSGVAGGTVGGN

T1 sequence (Q99873 whole entry): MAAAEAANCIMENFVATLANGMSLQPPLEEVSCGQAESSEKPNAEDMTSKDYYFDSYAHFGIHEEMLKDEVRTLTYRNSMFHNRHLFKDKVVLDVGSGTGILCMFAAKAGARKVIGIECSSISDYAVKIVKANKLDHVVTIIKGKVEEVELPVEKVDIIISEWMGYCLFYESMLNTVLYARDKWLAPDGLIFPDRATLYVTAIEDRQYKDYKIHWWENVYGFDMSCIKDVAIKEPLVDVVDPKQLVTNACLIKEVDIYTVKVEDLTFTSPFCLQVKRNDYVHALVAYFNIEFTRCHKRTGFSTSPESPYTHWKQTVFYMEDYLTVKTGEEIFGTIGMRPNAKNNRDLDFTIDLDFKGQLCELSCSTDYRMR

SMILES: NCCCN(CC[C@H](N)C(=O)O)C[C@H]1O[C@@H](n2cnc3c(N)ncnc32)[C@H](O)[C@@H]1O
- IC50 [1]: 3900 nM

SMILES: COc1cc2c(NC3CCN(CCCCCN)CC3)nc(NCCCN(C)C)nc2cc1OCCCCCN
- IC50 [2]: 100 nM

SMILES: CN1C(=O)[C@@H]2C[C@@]3([C@@]45C[C@H]6C(=O)N(C)[C@@H](CO)C(=O)N6[C@@H]4Nc4ccccc45)c4ccccc4N[C@H]3N2C(=O)[C@@H]1CO
- IC50 [3]: > 50000 nM

SMILES: O=C1C(Cl)=C(NCCN2CCOCC2)C(=O)c2ncccc21
- Ratio IC50 [4]: 2.5
- Ratio IC50 [5]: > 6
- Ratio IC50 [6]: > 6

SMILES: Cc1cc(C)c(CNC(=O)c2cc(-c3ccc4c(c3)OCCO4)nc3c2cnn3C(C)C)c(=O)[nH]1
- IC50 [7]: 620 nM

SMILES: CCCc1cc(C)[nH]c(=O)c1CNC(=O)c1cc(-c2ccc(N3CCN(CCCCc4cn(CCN5C(=O)\C(=C/C=C/C=C6/N(CCC(=O)OCOC(C)=O)c7ccc(C(=O)OCOC(C)=O)cc7C6(C)C)C(=O)N(CC)C5=O)nn4)CC3)nc2)cc2c1cnn2C(C)C
- IC50 [8]: 21 nM

SMILES: Cc1ccc(/N=C2\CC(=O)c3sc(C)nc3C2=O)cc1
- IC50 [9]: 500 nM

SMILES: CC(C)N(CCCNC(=O)Nc1ccc(C(C)(C)C)cc1)C[C@H]1O[C@@H](n2ccc3c(N)ncnc32)[C@H](O)[C@@H]1O
- IC50 [10]: > 10000 nM
- IC50 [11]: > 10000 nM
- IC50 [12]: > 10000 nM
- IC50 [13]: > 10000 nM
- IC50 [14]: > 10000 nM
- IC50 [15]: > 10000 nM

SMILES: O=C1COc2c(CCNCCN(C(=O)CCNCCc3ccc(Cl)c(Cl)c3)C3CCCCC3)ccc(O)c2N1
- Kd [16]: 500 nM

SMILES: COc1ccc(/N=N/c2c(S(=O)(=O)O)cc3cc(Nc4nc(Cl)nc(Cl)n4)ccc3c2O)cc1
- IC50 [17]: 4200 nM
- IC50 [18]: 2600 nM

SMILES: O=c1oc2c(O)c(O)cc3c(=O)oc4c(O)c(O)cc1c4c23
- inhibition [19]: > 50%

SMILES: CCCc1cc(C)[nH]c(=O)c1CNC(=O)c1cc(-c2ccc(N3CCN(C(C)C)CC3)nc2)cc2c1cnn2C(C)C
- IC50 [8]: < 10 nM
- Cmax [20]: 4.7 µM

SMILES: CCC(CC)n1ccc2c(C(=O)NCc3c(C)cc(C)[nH]c3=O)cc(C#N)cc21
- IC50 [21]: 15 nM
- IC50 [22]: 13 nM
- Ki [23]: 13 nM

SMILES: CC(C)N(CCCNC(=O)Nc1ccc(C(C)(C)C)cc1)C[C@H]1O[C@@H](n2cc(Br)c3c(N)ncnc32)[C@H](O)[C@@H]1O
- IC50 [24]: 8.8 nM
